Data as given in DBAASP.
Converted amounts (≈) assume the structure as drawn.

Key:
Assay in all cases: ≥ marks a high value that may be exact or a test limit, other limits are often not marked, values filed in µg/mL are converted to µM
[1] = test system: Staphylococcus aureus NCTC 10788
[2] = test system: Escherichia coli ATCC 25922
[3] = test system: Staphylococcus aureus NCTC 8325
[4] = test system: Bacillus subtilis ATCC 23857
[5] = test system: Candida albicans ATCC 90028
[6] = test system: Klebsiella pneumoniae ATCC 700603
[7] = test system: Pseudomonas aeruginosa ATCC 9027
[8] = test system: Staphylococcus aureus ATCC 25923

Row | SMILES | MIC [1] | MIC [2] | MIC [3] | MIC [4] | MIC [5] | MIC [6] | MIC [7] | MIC [8]
1 | CC(C)C[C@H](NC(=O)[C@H](CC(C)C)NC(=O)CNC(=O)CNC(=O)[C@H](CC(C)C)NC(=O)[C@H](CC(C)C)NC(=O)CNC(=O)[C@H](CC(C)C)NC(=O)[C@@H](N)Cc1ccccc1)C(N)=O [FLGLLGGLL] | ≥ 284 µM |  |  |  |  |  |  | 
2 | CC[C@H](C)[C@@H]1NC(=O)[C@H](CC(C)C)NC(=O)[C@@H](NC(=O)[C@@H](NC(=O)[C@H](Cc2ccccc2)NC(=O)[C@H](CCCCN)NC(=O)[C@@H]2CCCN2C(=O)[C@@H](NC(=O)[C@H](CCSC)NC(=O)[C@H](CO)NC(=O)[C@H](C)NC(=O)[C@H](C)NC(=O)[C@H](CC(C)C)NC(=O)CNC(=O)[C@H](C)NC(=O)[C@H](CC(C)C)NC(=O)[C@H](CCSC)NC(=O)[C@@H]2CCCN2C(=O)[C@H](CC(C)C)NC(=O)[C@@H](N)Cc2ccccc2)C(C)C)C(C)C)CSSC[C@@H](C(=O)O)NC(=O)[C@H](CCCCN)NC(=O)[C@H](CCCCN)NC(=O)[C@H]([C@@H](C)O)NC1=O [FLPMLAGLAASMVPKFVCLITKKC] |  | 16 µM (≈ 41.3 µg/mL) | 8 µM (≈ 20.6 µg/mL) |  |  |  |  | 
3 | CC[C@H](C)[C@H](NC(=O)CNC(=O)[C@H](CO)NC(=O)[C@H](CC(C)C)NC(=O)[C@H](CC(C)C)NC(=O)[C@H](CCCCN)NC(=O)CNC(=O)[C@@H](NC(=O)[C@@H](NC(=O)[C@@H]1CCCN1C(=O)[C@H](CC(C)C)NC(=O)[C@@H](NC(=O)[C@@H](NC(=O)[C@@H]1CCCN1C(=O)[C@H](CC(C)C)NC(=O)[C@@H](N)Cc1ccccc1)C(C)C)[C@@H](C)CC)C(C)C)[C@@H](C)CC)C(=O)N[C@@H](CC(C)C)C(N)=O [FLPVILPVIGKLLSGIL] |  | > 50 µM | 25 µM (≈ 44.8 µg/mL) |  |  |  |  | 
4 | CC[C@H](C)[C@H](NC(=O)CN)C(=O)N[C@H](C(=O)N[C@@H](CCCN=C(N)N)C(=O)NCC(=O)N[C@H](C(=O)N[C@H](C(=O)N[C@@H](CCCN=C(N)N)C(=O)N[C@@H](CCCN=C(N)N)C(=O)N[C@H](C(=O)N[C@@H](CCCCN)C(=O)NCC(N)=O)[C@@H](C)CC)[C@@H](C)CC)[C@@H](C)CC)[C@@H](C)CC [GIIRGIIRRIKG] |  | > 128 µM |  | 8 µM (≈ 10.8 µg/mL) |  |  |  | 
5 | CC[C@H](C)[C@H](NC(=O)CN)C(=O)N[C@@H](CCCN=C(N)N)C(=O)N[C@@H](CCCN=C(N)N)C(=O)NCC(=O)N[C@H](C(=O)N[C@H](C(=O)N[C@@H](CCCN=C(N)N)C(=O)N[C@H](C(=O)N[C@H](C(=O)N[C@@H](CCCCN)C(=O)N[C@@H](CCCN=C(N)N)C(N)=O)[C@@H](C)CC)[C@@H](C)CC)[C@@H](C)CC)[C@@H](C)CC [GIRRGIIRIIKR] |  | 64 µM (≈ 92.8 µg/mL) |  | 16 µM (≈ 23.2 µg/mL) |  |  |  | 
6 | CC[C@H](C)[C@H](NC(=O)CN)C(=O)N[C@@H](CCCN=C(N)N)C(=O)N[C@@H](CCCN=C(N)N)C(=O)NCC(=O)N[C@H](C(=O)N[C@@H](CCCN=C(N)N)C(=O)N[C@@H](CCCN=C(N)N)C(=O)N[C@H](C(=O)N[C@@H](CCCCN)C(=O)N[C@@H](CCCCN)C(=O)N[C@@H](CCCN=C(N)N)C(N)=O)[C@@H](C)CC)[C@@H](C)CC [GIRRGIRRIKKR] |  | > 128 µM |  | ≥ 128 µM |  |  |  | 
7 | CC[C@H](C)[C@H](NC(=O)CN)C(=O)N[C@@H](Cc1c[nH]c2ccccc12)C(=O)N[C@@H](CC(=O)O)C(=O)N[C@H](C(=O)N[C@@H](CC(C)C)C(=O)N[C@@H](CCCCN)C(=O)N[C@@H](CC(N)=O)C(=O)N[C@H](C(=O)NCC(=O)N[C@@H](CCCCN)C(=O)N[C@@H](C)C(=O)N[C@H](C(=O)N[C@@H](CC(C)C)C(=O)NCC(=O)N[C@@H](CCCCN)C(=O)N[C@H](C(=O)N[C@@H](CC(C)C)C(=O)N[C@@H](CCC(=O)O)C(=O)N[C@@H](CC(N)=O)C(=O)N[C@H](C(N)=O)C(C)C)C(C)C)C(C)C)C(C)C)[C@@H](C)O [GIWDTLKNVGKAVLGKVLENV] |  | 12.5 µM (≈ 28.2 µg/mL) | ≥ 50 µM |  |  |  |  | 
8 | CC[C@H](C)[C@H](NC(=O)[C@H](CC(C)C)NC(=O)[C@H](CC(C)C)NC(=O)[C@H](CC(N)=O)NC(=O)[C@H](CCCCN)NC(=O)[C@@H](NC(=O)[C@@H](NC(=O)CNC(=O)[C@H](CC(C)C)NC(=O)[C@@H](NC(=O)CN)C(C)C)[C@@H](C)O)C(C)C)C(=O)NCC(=O)N[C@@H](C)C(=O)NCC(=O)N[C@@H](CCCCN)C(=O)N[C@@H](CO)C(=O)N[C@@H](C)C(=O)N[C@@H](C)C(=O)N[C@@H](CCC(N)=O)C(=O)N[C@@H](CO)C(=O)N[C@H](C(=O)N[C@@H](CC(C)C)C(=O)N[C@@H](CCCCN)C(=O)N[C@H](C(=O)N[C@@H](CC(C)C)C(=O)N[C@@H](CO)C(=O)N[C@H]1CSSC[C@@H](C(=O)O)NC(=O)[C@H](CC(=O)O)NC(=O)[C@H](CC(N)=O)NC(=O)[C@H](CO)NC(=O)[C@H](CC(C)C)NC(=O)[C@H](CCCCN)NC1=O)[C@@H](C)O)C(C)C [GVLGTVKNLLIGAGKSAAQSVLKTLSCKLSNDC] |  | 6 µM (≈ 19.7 µg/mL) | 25 µM (≈ 82.2 µg/mL) |  | ≥ 100 µM |  |  | 
9 | CC[C@H](C)[C@H](N)C(=O)N[C@@H](CC(C)C)C(=O)N1CCC[C@H]1C(=O)N[C@H](C(=O)N[C@@H](CC(C)C)C(=O)NCC(=O)N[C@@H](CC(N)=O)C(=O)N[C@@H](CC(C)C)C(=O)N[C@@H](CC(C)C)C(=O)N[C@@H](CC(N)=O)C(=O)NCC(=O)N[C@@H](CC(C)C)C(=O)N[C@@H](CC(C)C)C(N)=O)[C@@H](C)CC [ILPILGNLLNGLL] |  | > 100 µM | ≥ 100 µM |  | ≥ 100 µM |  |  | 
10 | CC[C@H](C)[C@H](NC(=O)[C@H](CCCCN)NC(=O)[C@H](CCCCN)NC(=O)[C@H](C)NC(=O)[C@@H](NC(=O)[C@H](C)NC(=O)[C@H](CC(C)C)NC(=O)[C@H](CC(C)C)NC(=O)[C@H](C)NC(=O)[C@H](CCCCN)NC(=O)[C@H](CC(C)C)NC(=O)[C@H](C)NC(=O)[C@@H](N)CC(C)C)C(C)C)C(=O)N[C@@H](CC(C)C)C(N)=O [LALKALLAVAKKIL] |  | 4 µM (≈ 5.86 µg/mL) |  | 4 µM (≈ 5.86 µg/mL) |  | 8 µM (≈ 11.7 µg/mL) | 8 µM (≈ 11.7 µg/mL) | 4 µM (≈ 5.86 µg/mL)
11 | CC[C@H](C)[C@H](NC(=O)[C@H](CCCCN)NC(=O)[C@H](CCCCN)NC(=O)[C@H](C)NC(=O)[C@@H](NC(=O)[C@H](C)NC(=O)[C@H](CC(C)C)NC(=O)[C@H](CC(C)C)NC(=O)[C@H](C)NC(=O)[C@H](C)NC(=O)[C@H](CC(C)C)NC(=O)[C@H](CC(N)=O)NC(=O)[C@@H](N)CC(C)C)C(C)C)C(=O)N[C@@H](CC(C)C)C(N)=O [LNLAALLAVAKKIL] |  | 8 µM (≈ 11.6 µg/mL) |  | 16 µM (≈ 23.2 µg/mL) |  | 32 µM (≈ 46.4 µg/mL) | 32 µM (≈ 46.4 µg/mL) | 4 µM (≈ 5.8 µg/mL)
12 | CC(C)C[C@H](NC(=O)[C@H](C)NC(=O)[C@H](CCCCN)NC(=O)[C@H](CCCCN)NC(=O)[C@H](C)NC(=O)[C@@H](NC(=O)[C@H](C)NC(=O)[C@H](CC(C)C)NC(=O)[C@H](CC(C)C)NC(=O)[C@H](C)NC(=O)[C@H](CCCCN)NC(=O)[C@H](CC(C)C)NC(=O)[C@H](CC(N)=O)NC(=O)[C@@H](N)CC(C)C)C(C)C)C(N)=O [LNLKALLAVAKKAL] |  | 8 µM (≈ 11.7 µg/mL) |  | 8 µM (≈ 11.7 µg/mL) |  | 32 µM (≈ 46.9 µg/mL) | 32 µM (≈ 46.9 µg/mL) | 32 µM (≈ 46.9 µg/mL)
13 | CC[C@H](C)[C@@H]1NC(=O)[C@H](CCCCN)NC(=O)[C@@H](NC(=O)[C@H](C)NC(=O)[C@@H](NC(=O)[C@H](CC(C)C)NC(=O)CNC(=O)[C@H](CC(C)C)NC(=O)CNC(=O)[C@@H](NC(=O)[C@H](CCCCN)NC(=O)CNC(=O)[C@H](CC(C)C)NC(=O)[C@H](CC(N)=O)NC(=O)[C@H](CCCCN)NC(=O)[C@H](CC(C)C)NC(=O)[C@@H](NC(=O)[C@H](CO)NC(=O)[C@H](CC(C)C)NC(=O)[C@H](CCSC)NC(=O)[C@@H](N)CO)C(C)C)C(C)C)C(C)C)CSSC[C@@H](C(=O)O)NC(=O)[C@H](CCC(N)=O)NC(=O)[C@H](CCCCN)NC(=O)[C@H](CC(N)=O)NC1=O [SMLSVLKNLGKVGLGLVACKINKQC] |  | 1.5 µM (≈ 3.92 µg/mL) | ≥ 55 µM |  | ≥ 58 µM |  |  | 
